Experimental data taken from patent publication US20120149080A1, “YEAST PRODUCTION CULTURE FOR THE PRODUCTION OF BUTANOL” (Butamax(TM) Advanced Biofuels LLC, priority 2010, published 2012).

Experiments:
[1] = test system: Issatchenkia orientalis PNY0660; assay: Glucose utilization rate in high cell density culture in corn test medium; assay type: cell-based; settings: for Glucose utilization rate: 30 C., 0 h to 6 h, 2.7 gdcw/L, corn test medium
Method: Strain Issatchenkia orientalis PNY0660, was derived from ATCC 20381 strain that was previously referred to as Candida acidothermophilium. Strain PNY0660 was plated from a freezer vial onto YPD agar (Teknova, Hollister, Calif.; Cat. #Y1000) and incubated overnight at 30° C. Cells from the YPD plate were inoculated into a 50 ml pre-culture of YPD broth (Teknova, Hollister, Calif.; Cat. #Y5000) with an initial OD600 of 0.06 to 0.08, and this culture was grown for 5 hours in an air shaker at 30° C. An aliquot of the pre-culture was inoculated into 200 ml of YPD broth with an initial OD600 of 0.6, and this culture was incubated with aeration at 30° C. for approximately 17 hours. The optical density of the culture was determined, the culture was centrifuged, and the sugar consumption rate was determined in corn test medium. Corn test medium contained 0.2% casamino acids and 2% glucose and 100 mM MES buffer pH 5.25 and per liter contained (i) salts: ammonium sulfate 5.0 g, potassium phosphate monobasic 2.8 g, and magnesium sulfate heptahydrate 0.5 g, (ii) vitamins: biotin (D−) 0.40 mg, Ca D(+) panthotenate 8.00 mg, myo-inositol 200.00 mg, pyridoxol hydrochloride 8.00 mg, p-aminobenzoic acid 1.60 mg, riboflavin 1.60 mg, folic acid 0.02 mg, niacin 30.0 mg, and thiamine 30 mg; and (iii) trace elements: EDTA (Titriplex 1117) 99.38 mg, zinc sulphate heptahydrate 29.81 mg, manganese chloride dehydrate 5.57 mg, cobalt(II)chloride hexahydrate 1.99 mg, copper(II)sulphate pentahydrate 1.99 mg, Di-sodium molybdenum dehydrate 2.65 mg, calcium chloride dehydrate 29.81 mg, iron sulphate heptahydrate 19.88 mg, and boric acid.
20 ml cultures (2.7 gdcw/L) in corn test medium were transferred to flasks that contained 0.0%, 0.5%, 1.0%, 1.5%, 1.75% or 2.0% isobutanol. Time of addition of cells was referred to as 0 hours. At various times, samples (1.5 ml) were withdrawn and centrifuged at 10,000 rpm for 2 minutes in a microfuge (Sorvall Biofuge pico). The supernatant was filtered through a 0.2 μm filter (Pall Life Sciences, Port Washington, N.Y.) Pall GHP Acrodisc 13 mm Syringe Filter with 0.2 μm GHP Membrane), the filtrate was diluted ten-fold, and the glucose concentration was determined using a YSI Glucose Analyzer (YSI 2700 Select; YSI, Inc., Yellow Springs, Ohio).

[2] = test system: Saccharomyces cerevisiae BY4743; assay: Growth (OD600) of yeast in varying isobutanol concentrations; assay type: cell-based
Method: Saccharomyces cerevisiae BY4743 was plated from a freezer vial onto YPD agar (Teknova, Hollister, Calif.; Cat. #Y1000) and incubated overnight at 30° C. Cells from the YPD plate were inoculated into a 25 ml pre-culture of YPD broth (Teknova, Hollister, Calif.; Cat. #Y5000) with an initial OD600 of 0.06 to 0.08. The pre-culture was grown for 7 hours in an aerobic shaker at 30° C. An aliquot of the pre-culture was inoculated into 125 ml of YPD broth, with an initial OD600 of 0.06 to 0.08, and this culture was incubated with aeration at 30° C. for approximately 17 hours.
A starter culture of 150 ml of YPD was inoculated with 5 ml of the overnight culture with an initial OD600 of 0.15. This culture was incubated at 30° C. with aeration for two hours, reaching OD600 of 0.38. At this time (time=0) the cultures were challenged with varying concentrations of isobutanol as given in Table 4 and the OD600 was assayed every hour for 5 h and at 24 h.

SMILES: CC(C)CO [Isobutanol, isobutanol]
- Glucose utilization rate ([1]; 5.0 g/L isobutanol): 2.4 g/gdcw/h
- Glucose utilization rate ([1]; 10.0 g/L isobutanol): 2.4 g/gdcw/h
- Glucose utilization rate ([1]; 15.0 g/L isobutanol): 1.4 g/gdcw/h
- Glucose utilization rate ([1]; 17.5 g/L isobutanol): 0.9 g/gdcw/h
- Glucose utilization rate ([1]; 20.0 g/L isobutanol): 0.7 g/gdcw/h
- sugar consumption rate ([1]; I. orientalis strains, 20 g/l of isobutanol): 0.7 g/gdw/h
- Growth (OD 600) ([2]; 0.5% isobutanol, 1 hour): 0.55 OD 600
- Growth (OD 600) ([2]; 0.5% isobutanol, 2 hours): 0.74 OD 600
- Growth (OD 600) ([2]; 0.5% isobutanol, 3 hours): 1.12 OD 600
- Growth (OD 600) ([2]; 0.5% isobutanol, 4 hours): 1.69 OD 600
- Growth (OD 600) ([2]; 0.5% isobutanol, 5 hours): 2.22 OD 600
- Growth (OD 600) ([2]; 0.5% isobutanol, 24 hours): 5.19 OD 600
- Growth (OD 600) ([2]; 0.5% isobutanol, time 0 hours): 0.38 OD 600
- Growth (OD 600) ([2]; 0.75% isobutanol, 1 hour): 0.54 OD 600
- Growth (OD 600) ([2]; 0.75% isobutanol, 2 hours): 0.68 OD 600
- Growth (OD 600) ([2]; 0.75% isobutanol, 3 hours): 1.00 OD 600
- Growth (OD 600) ([2]; 0.75% isobutanol, 4 hours): 1.36 OD 600
- Growth (OD 600) ([2]; 0.75% isobutanol, 5 hours): 1.80 OD 600
- Growth (OD 600) ([2]; 0.75% isobutanol, 24 hours): 4.97 OD 600
- Growth (OD 600) ([2]; 0.75% isobutanol, time 0 hours): 0.38 OD 600
- Growth (OD 600) ([2]; 1% isobutanol, 1 hour): 0.51 OD 600
- Growth (OD 600) ([2]; 1% isobutanol, 2 hours): 0.62 OD 600
- Growth (OD 600) ([2]; 1% isobutanol, 3 hours): 0.82 OD 600
- Growth (OD 600) ([2]; 1% isobutanol, 4 hours): 0.96 OD 600
- Growth (OD 600) ([2]; 1% isobutanol, 5 hours): 1.16 OD 600
- Growth (OD 600) ([2]; 1% isobutanol, 24 hours): 4.41 OD 600
- cell concentration reached ([2]; 1% isobutanol, after overnight growth, one OD600 = 10^7 cells/ml): about 4×10^7 cells/ml
- Growth (OD 600) ([2]; 1% isobutanol, time 0 hours): 0.38 OD 600
- Growth (OD 600) ([2]; 1.5% isobutanol, 1 hour): 0.46 OD 600
- Growth (OD 600) ([2]; 1.5% isobutanol, 2 hours): 0.50 OD 600
- Growth (OD 600) ([2]; 1.5% isobutanol, 3 hours): 0.53 OD 600
- Growth (OD 600) ([2]; 1.5% isobutanol, 4 hours): 0.61 OD 600
- Growth (OD 600) ([2]; 1.5% isobutanol, 5 hours): 0.65 OD 600
- Growth (OD 600) ([2]; 1.5% isobutanol, 24 hours): 1.41 OD 600
- Growth (OD 600) ([2]; 1.5% isobutanol, time 0 hours): 0.38 OD 600
- Growth (OD 600) ([2]; 2% isobutanol, 1 hour): 0.43 OD 600
- Growth (OD 600) ([2]; 2% isobutanol, 2 hours): 0.46 OD 600
- Growth (OD 600) ([2]; 2% isobutanol, 3 hours): 0.47 OD 600
- Growth (OD 600) ([2]; 2% isobutanol, 4 hours): 0.49 OD 600
- Growth (OD 600) ([2]; 2% isobutanol, 5 hours): 0.50 OD 600
- Growth (OD 600) ([2]; 2% isobutanol, 24 hours): 0.90 OD 600
- Growth (OD 600) ([2]; 2% isobutanol, time 0 hours): 0.38 OD 600
- Growth (OD 600) ([2]; 2.5% isobutanol, 1 hour): 0.42 OD 600
- Growth (OD 600) ([2]; 2.5% isobutanol, 2 hours): 0.42 OD 600
- Growth (OD 600) ([2]; 2.5% isobutanol, 3 hours): 0.42 OD 600
- Growth (OD 600) ([2]; 2.5% isobutanol, 4 hours): 0.45 OD 600
- Growth (OD 600) ([2]; 2.5% isobutanol, 5 hours): 0.45 OD 600
- Growth (OD 600) ([2]; 2.5% isobutanol, 24 hours): 0.52 OD 600
- Growth (OD 600) ([2]; 2.5% isobutanol, time 0 hours): 0.38 OD 600
